The values that follow are results of earlier work, collected in PMC8513935.

Data set [1] in a line: experimental, compiled by the authors from the literature (the ESI cites the sources).
The nature of data set [2]: derived by the authors as gas->solvent minus gas->water (a hypothetical dry solvent; the ESI), not a two-phase measurement.

Turning to `CCCCCCCCCCCCCCCCCCO`, the log K of transfer, gas to solvent in data set [1] (Decan-1-ol, 25 C) is 10.9 log10 K; in data set [1] (Di-n-butyl ether, 25 C), 10.6 log10 K; in data set [1] (Diethyl Ether, 25 C), 11 log10 K; in data set [1] (Hexadecane, 25 C), 9.66 log10 K; in data set [1] (Hexan-1-ol, 25 C), 10.9 log10 K; in data set [1] (Octan-1-ol, 25 C) it was 10.9 log10 K. Moreover, the log K of transfer, gas to solvent in data set [1] (Propan-2-ol, 25 C) was 10.9 log10 K; in data set [1] (Water, 25 C), 1.78 log10 K. For the same molecule, the log K of transfer, water to solvent in data set [2] (Decan-1-ol, 25 C) is 9.12 log10 K; in data set [2] (Di-n-butyl ether, 25 C) it was 8.85 log10 K; in data set [2] (Diethyl Ether, 25 C) it was 9.2 log10 K; in data set [2] (Hexadecane, 25 C), 7.88 log10 K; in data set [2] (Hexan-1-ol, 25 C) it was 9.16 log10 K; in data set [2] (Octan-1-ol(dry), 25 C), 9.15 log10 K. Moreover, the log K of transfer, water to solvent in data set [2] (Propan-2-ol, 25 C) was 9.12 log10 K.

Take `CCCCC`: the log K of transfer, gas to solvent in data set [1] (1,2-Dichloroethane, 25 C) is 1.99 log10 K; in data set [1] (Acetonitrile, 25 C), 1.53 log10 K; in data set [1] (Benzene, 25 C), 2.19 log10 K; in data set [1] (Butan-1-ol, 25 C), 1.98 log10 K; in data set [1] (Butan-2-ol, 25 C), 1.94 log10 K; in data set [1] (Butanone, 25 C) it was 2.07 log10 K. Further, the log K of transfer, gas to solvent in data set [1] (Butyronitrile, 25 C) was 1.92 log10 K; in data set [1] (CCl4, 25 C), 2.36 log10 K; in data set [1] (Chlorobenzene, 25 C), 2.43 log10 K; in data set [1] (Chloroform, 25 C), 2.36 log10 K; in data set [1] (Cyclohexane, 25 C), 2.57 log10 K; in data set [1] (Cyclohexanone, 25 C), 1.98 log10 K. Besides, the log K of transfer, gas to solvent in data set [1] (Di-n-butyl ether, 25 C) was 2.33 log10 K; in data set [1] (Dichloromethane, 25 C), 2.24 log10 K; in data set [1] (Ethanol, 25 C) it was 1.78 log10 K; in data set [1] (Heptan-1-ol, 25 C), 1.95 log10 K; in data set [1] (Hexadecane, 25 C), 2.16 log10 K; in data set [1] (Hexan-1-ol, 25 C), 1.97 log10 K. The log K of transfer, gas to solvent in data set [1] (Hexane, 25 C) is 2.44 log10 K; in data set [1] (Methanol, 25 C) it was 1.66 log10 K; in data set [1] (Octan-1-ol, 25 C) it was 1.95 log10 K; in data set [1] (Pentan-1-ol, 25 C), 1.94 log10 K; in data set [1] (Perfluoroalkane, 25 C), 1.55 log10 K; in data set [1] (Propan-1-ol, 25 C) it was 1.81 log10 K. The log K of transfer, gas to solvent was 1.85 log10 K in data set [1] (Propan-2-ol, 25 C); 1.98 log10 K in data set [1] (Propanone, 25 C); 2.33 log10 K in data set [1] (Tetrahydrofuran, 25 C); 2.3 log10 K in data set [1] (Toluene, 25 C); -1.7 log10 K in data set [1] (Water, 25 C). Besides, the log K of transfer, water to solvent in data set [2] (1,2-Dichloroethane, 25 C) was 3.69 log10 K; in data set [2] (Acetone, 25 C), 3.68 log10 K; in data set [2] (Acetonitrile, 25 C), 3.23 log10 K; in data set [2] (Benzene, 25 C), 3.89 log10 K; in data set [2] (Butan-1-ol, 25 C), 3.68 log10 K; in data set [2] (Butan-2-ol, 25 C) it was 3.64 log10 K. Moreover, the log K of transfer, water to solvent in data set [2] (Butanone, 25 C) is 3.77 log10 K; in data set [2] (Butyronitrile, 25 C) it was 3.62 log10 K; in data set [2] (CCl4, 25 C), 4.06 log10 K; in data set [2] (Chlorobenzene, 25 C) it was 4.13 log10 K; in data set [2] (Chloroform, 25 C), 4.06 log10 K; in data set [2] (Cyclohexane, 25 C), 4.27 log10 K. Further, the log K of transfer, water to solvent in data set [2] (Cyclohexanone, 25 C) is 3.68 log10 K; in data set [2] (Di-n-butyl ether, 25 C), 4.03 log10 K; in data set [2] (Dichloromethane, 25 C), 3.94 log10 K; in data set [2] (Ethanol, 25 C), 3.48 log10 K; in data set [2] (Heptan-1-ol, 25 C) it was 3.65 log10 K; in data set [2] (Hexadecane, 25 C) it was 3.86 log10 K. Further, the log K of transfer, water to solvent in data set [2] (Hexan-1-ol, 25 C) was 3.67 log10 K; in data set [2] (Hexane, 25 C), 4.14 log10 K; in data set [2] (Methanol, 25 C) it was 3.36 log10 K; in data set [2] (Octan-1-ol(dry), 25 C), 3.65 log10 K; in data set [2] (Pentan-1-ol, 25 C) it was 3.64 log10 K; in data set [2] (Perfluoroalkane, 25 C), 3.25 log10 K. For the same molecule, the log K of transfer, water to solvent was 3.51 log10 K in data set [2] (Propan-1-ol, 25 C); 3.55 log10 K in data set [2] (Propan-2-ol, 25 C); 4.03 log10 K in data set [2] (Tetrahydrofuran, 25 C); 4.01 log10 K in data set [2] (Toluene, 25 C).

For the molecule `CCCCCCN`, the log K of transfer, gas to solvent in data set [1] (Hexadecane, 25 C) was 3.65 log10 K; in data set [1] (Water, 25 C), 2.9 log10 K. Further, the log K of transfer, water to solvent in data set [2] (Hexadecane, 25 C) is 0.755 log10 K.

As to `CCCCNCCCC`, the log K of transfer, gas to solvent is 4.35 log10 K in data set [1] (Hexadecane, 25 C) and 2.38 log10 K in data set [1] (Water, 25 C). Also, the log K of transfer, water to solvent in data set [2] (Hexadecane, 25 C) is 1.97 log10 K.
